15 compounds from patent publication EP4725941A1, “ARYLAMIDE DERIVATIVE HAVING ANTITUMOR ACTIVITY” (priority 2020, dated 2021) can be followed below.

What is called IC50 is the point on the concentration scale where inhibition reaches its midpoint. By microsomal CLint is commonly meant the capacity of the preparation to metabolise the compound, expressed as a volume cleared per time. Read a high microsomal CLint as rapid turnover.

Read-outs that look alike come from different tables or passages of the source.

The target of one data set is T1, MEK1 (Homo sapiens, UniProt Q02750).
T1 construct: purchased Thermo Fisher Scientific Inc. (MEK1, CRAF); Carna Biosciences, Inc. (ERK2)
The experiment in a line: MEK1-inhibiting activity, fluorescent polarization method (CRAF/MEK1/ERK2 cascade, IMAP). The class given is biochemical. The settings on record: Table 3; read-out: MEK1 IC50. How it is done: The MEK1-inhibiting activity of the compounds listed in Table 3 below were evaluated by the fluorescent polarization method as described below.

A further data set concerns the target T2, BRAF (Homo sapiens, UniProt P15056).
T2 construct: purchased Eurofins Genomics KK; (BRAF); Thermo Fisher Scientific Inc. (MEK1)
The data set can be described thus: BRAF-inhibiting activity, time-resolved fluorescence-fluorescence resonance energy transfer assay. The data set is classed as biochemical. The protocol:
The BRAF-inhibiting activity of the compounds listed in Table 3 below was evaluated by the time-resolved fluorescence-fluorescence resonance energy transfer assay as described below.

In another data set the test system is Calu-6. The data set can be described thus: Cell proliferation-inhibiting activity (ATP in viable cells, CellTiter-Glo), Calu-6. The data set is classed as cell-based, human. The settings on record: read-out: Calu-6 IC50. In general terms: Cellular ATP, detected with luciferase, serves as a proxy for viable cell number.
The next data set relates to NCI-H2122. The experiment in a line: Cell proliferation-inhibiting activity (ATP in viable cells, CellTiter-Glo), NCI-H2122. The data set is classed as cell-based, human. The settings on record: read-out: NCI-H2122 IC50.
Data set [1] is described as follows: Human liver microsome stability. The data set is classed as in vitro ADME. The settings on record: human liver microsomes, pH 7.4.
A further data set concerns A549. The data set can be described thus: Cell proliferation-inhibiting activity (ATP in viable cells, CellTiter-Glo), A549. The class given is cell-based, human. The settings on record: A549, 96 h; human lung cancer cells, 4 days; read-out: A549 IC50.
Setting [2] is: Calu-6, 96 h, human lung cancer cells, 4 days.
Where [3] appears, read: NCI-H2122, 96 h, human lung cancer cells, 4 days.
Where [4] appears, read: human lung cancer cells, 4 days.

T1 sequence (Q02750 whole entry): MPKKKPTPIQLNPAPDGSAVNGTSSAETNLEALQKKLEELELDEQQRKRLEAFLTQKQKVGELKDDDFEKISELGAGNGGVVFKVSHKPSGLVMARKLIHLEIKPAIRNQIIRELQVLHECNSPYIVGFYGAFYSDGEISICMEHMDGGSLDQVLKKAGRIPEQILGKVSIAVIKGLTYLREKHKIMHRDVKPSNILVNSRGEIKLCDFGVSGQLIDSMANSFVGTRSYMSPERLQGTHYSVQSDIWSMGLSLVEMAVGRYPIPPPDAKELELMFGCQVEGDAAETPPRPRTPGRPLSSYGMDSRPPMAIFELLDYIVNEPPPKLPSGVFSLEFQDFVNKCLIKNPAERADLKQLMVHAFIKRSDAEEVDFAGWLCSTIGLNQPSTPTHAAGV
T2 sequence (P15056 417-766 limits assumed): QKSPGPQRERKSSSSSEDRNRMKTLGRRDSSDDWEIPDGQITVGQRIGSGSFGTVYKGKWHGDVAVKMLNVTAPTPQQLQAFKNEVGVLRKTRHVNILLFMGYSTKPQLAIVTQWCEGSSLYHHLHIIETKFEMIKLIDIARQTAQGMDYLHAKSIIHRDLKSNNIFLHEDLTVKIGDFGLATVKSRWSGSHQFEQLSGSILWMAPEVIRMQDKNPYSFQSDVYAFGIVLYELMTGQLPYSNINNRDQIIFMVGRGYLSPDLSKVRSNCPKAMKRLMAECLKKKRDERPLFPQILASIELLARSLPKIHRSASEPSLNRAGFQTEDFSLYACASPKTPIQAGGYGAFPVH

Turning to `CNS(=O)(=O)Nc1nccc(Cn2cc(C(=O)NC3CC3)c(Nc3ccc(I)cc3F)c(C)c2=O)c1F` [Compound P-6, N-Cyclopropyl-4-(2-fluoro-4-iodoanilino)-1-[[3-fluoro-2-(methylsulfamoylamino)pyridin-4-yl]methyl]-5-methyl-6-oxopyridine-3-carboxamide], the half-inhibitory concentration (IC50) is 13 nM on MEK1, 9 nM on BRAF (read-out: BRAF IC50; Table 3), 8 nM in the data set on Calu-6 (setting [2]) and 4 nM in the data set with NCI-H2122 (setting [3]). Further, the microsomal CLint at 0.99 µM in data set [1] worked out at 4 µL/min/mg.
In the case of `CNS(=O)(=O)Nc1nccc(Cn2cc(C(=O)NOC)c(Nc3ccc(I)cc3F)c(C)c2=O)c1F` [Compound P-7, 4-(2-Fluoro-4-iodoanilino)-1-[[3-fluoro-2-(methylsulfamoylamino)pyridin-4-yl]methyl]-N-methoxy-5-methyl-6-oxopyridine-3-carboxamide], the half-maximal inhibitory concentration (IC50) at MEK1 was 7 nM; at BRAF (read-out: BRAF IC50; Table 3), 7 nM; in the data set on Calu-6 (setting [2]), 72 nM; in the data set with NCI-H2122 (setting [3]), 7 nM. This compound gave a microsomal CLint at 0.99 µM in data set [1] of 12 µL/min/mg.
Turning to `CCS(=O)(=O)Nc1nccc(Cn2cc(C(=O)NC3CC3)c(Nc3ccc(I)cc3F)c(C)c2=O)c1F` [Compound P-4, N-Cyclopropyl-1-[[2-(ethylsulfonylamino)-3-fluoropyridin-4-yl]methyl]-4-(2-fluoro-4-iodoanilino)-5-methyl-6-oxopyridine-3-carboxamide], the half-maximal inhibitory concentration (IC50) on MEK1 worked out at 34 nM; at BRAF (read-out: BRAF IC50; Table 3), 16 nM; in the data set on Calu-6 (setting [2]) it was 45 nM; in the data set with NCI-H2122 (setting [3]) it was 24 nM. Moreover, in data set [1], the microsomal CLint at 0.99 µM is 1 µL/min/mg.
As to `CONC(=O)c1cc(Cc2cccc(NS(N)(=O)=O)c2F)c(F)c(F)c1Nc1ccc(I)cc1F` [Compound D-12, 3,4-Difluoro-2-(2-fluoro-4-iodoanilino)-5-[[2-fluoro-3-(sulfamoylamino)phenyl]methyl]-N-methoxybenzamide], the half-maximal inhibitory concentration (IC50) on MEK1 was found to be 15 nM; on BRAF (read-out: BRAF IC50; Table 3), 14 nM; with Calu-6 (setting [2]), 6 nM; in the data set with NCI-H2122 (setting [3]), 0.4 nM. In data set [1], this compound had an intrinsic clearance (microsomal CLint) at 0.99 µM of 18 µL/min/mg.
For `CONC(=O)c1cc(Cc2ccnc(NS(C)(=O)=O)c2F)c(F)c(F)c1Nc1ccc(I)cc1F` [Compound B-15, 3,4-Difluoro-2-(2-fluoro-4-iodoanilino)-5-[[3-fluoro-2-(methanesulfonamide)pyridin-4-yl]methyl]-N-methoxybenzamide], in that order: 8 nM, 4 nM, 60 nM, 6 nM and 13 µL/min/mg.
In the case of `CCS(=O)(=O)Nc1nccc(Cc2cc(C(=O)NOC)c(Nc3ccc(C4CC4)cc3F)c(F)c2F)c1F` [Compound G-8, 2-(4-Cyclopropyl-2-fluoroanilino)-5-[[2-(ethylsulfonylamino)-3-fluoropyridin-4-yl]methyl]-3,4-difluoro-N-methoxybenzamide], the IC50 at MEK1 worked out at 53 nM; on BRAF (Table 3; read-out: BRAF IC50), 7 nM; in the data set with Calu-6 (Homo sapiens, Calu-6, 96 h), 232 nM; in the data set on NCI-H2122 (Homo sapiens, NCI-H2122, 96 h) it was 25 nM. Further, the intrinsic clearance (microsomal CLint) at 0.99 µM in data set [1] was found to be 26 µL/min/mg.
As for `CC1(NS(=O)(=O)Nc2nccc(Cc3cc(C(N)=O)c(Nc4ccc(C5CC5)cc4F)c(F)c3F)c2F)CCC1` [Compound A-46, 2-(4-Cyclopropyl-2-fluoroanilino)-3,4-difluoro-5-[[3-fluoro-2-[(1-methylcyclobutyl)sulfamoylamino]pyridin-4-yl]methyl]benzamide], the IC50 came out at 811 nM at MEK1; 30 nM on BRAF (Table 3; read-out: BRAF IC50); 367 nM in the data set on Calu-6 (Homo sapiens, Calu-6, 96 h); 31 nM in the data set with NCI-H2122 (Homo sapiens, NCI-H2122, 96 h). In data set [1], this compound had a microsomal CLint at 0.99 µM of 23 µL/min/mg.
For the compound `CS(=O)(=O)Nc1nccc(Cc2cc(C(=O)NC3CC3)c(Nc3ccc(I)cc3F)c(F)c2F)c1F` [Compound B-14, N-Cyclopropyl-3,4-difluoro-2-(2-fluoro-4-iodoanilino)-5-[[3-fluoro-2-(methanesulfonamide)pyridin-4-yl]methyl]benzamide], the IC50 worked out at 104 nM on MEK1, 13 nM at BRAF (read-out: BRAF IC50; Table 3), 74 nM in the data set on Calu-6 (setting [2]) and 11 nM in the data set with NCI-H2122 (setting [3]). Also, the microsomal CLint at 0.99 µM in data set [1] worked out at 4 µL/min/mg.
Consider `CNS(=O)(=O)Nc1cccc(Cc2cc(C(=O)NOC)c(Nc3ccc(C4CC4)cc3F)c(F)c2F)c1F` [Compound D-16, 2-(4-Cyclopropyl-2-fluoroanilino)-3,4-difluoro-5-[[2-fluoro-3-(methylsulfamoylamino)phenyl]methyl]-N-methoxybenzamide], for which the half-inhibitory concentration (IC50) at MEK1 is 48 nM; at BRAF (Table 3; read-out: BRAF IC50) it was 6 nM; in the data set with Calu-6 (Homo sapiens, Calu-6, 96 h), 17 nM; in the data set on NCI-H2122 (Homo sapiens, NCI-H2122, 96 h), 1 nM. Also, the microsomal CLint at 0.99 µM in data set [1] amounted to 51 µL/min/mg.
In the case of `CONC(=O)c1cc(Cc2ccnc(NS(=O)(=O)NC3(C)CCC3)c2F)c(F)c(F)c1Nc1ccc(C2CC2)cc1F` [Compound G-6, 2-(4-Cyclopropyl-2-fluoroanilino)-3,4-difluoro-5-[[3-fluoro-2-[(1-methylcyclobutyl)sulfamoylamino]pyridin-4-yl]methyl]-N-methoxybenzamide], the IC50 at MEK1 turned out to be 32 nM; at BRAF (read-out: BRAF IC50; Table 3), 15 nM; in the data set on Calu-6 (setting [2]) it was 23 nM; in the data set on NCI-H2122 (setting [3]), 2 nM. In data set [1], the intrinsic clearance (microsomal CLint) at 0.99 µM turned out to be 57 µL/min/mg.
As for `CONC(=O)c1cc(Cc2ccnc(NS(C)(=O)=O)c2F)c(F)c(F)c1Nc1ccc(C2CC2)cc1F` [Compound G-9, 2-(4-Cyclopropyl-2-fluoroanilino)-3,4-difluoro-5-[[3-fluoro-2-(methanesulfonamide)pyridin-4-yl]methyl]-N-methoxybenzamide], the concentration for half-maximal inhibition (IC50) on MEK1 was 230 nM; at BRAF (Table 3; read-out: BRAF IC50) it was 13 nM; in the data set on Calu-6 (Homo sapiens, Calu-6, 96 h) it was 444 nM; in the data set on NCI-H2122 (Homo sapiens, NCI-H2122, 96 h), 67 nM. Further, the microsomal CLint at 0.99 µM in data set [1] worked out at 22 µL/min/mg.
Regarding `CC1(NS(=O)(=O)Nc2nccc(Cc3cc(C(=O)NC4CC4)c(Nc4ccc(C5CC5)cc4F)c(F)c3F)c2F)CCC1` [Compound G-5], the IC50 at MEK1 was 751 nM; at BRAF (Table 3; read-out: BRAF IC50) it was 78 nM; in the data set on Calu-6 (Homo sapiens, Calu-6, 96 h) it was 374 nM; in the data set with NCI-H2122 (Homo sapiens, NCI-H2122, 96 h), 57 nM. The microsomal CLint at 0.99 µM in data set [1] amounted to 86 µL/min/mg.
For the compound `CNS(=O)(=O)Nc1nccc(Cn2cc(C(N)=O)c(Nc3ccc(I)cc3F)c(C)c2=O)c1F` [Compound P-1, 4-(2-Fluoro-4-iodoanilino)-1-[[3-fluoro-2-(methylsulfamoylamino)pyridin-4-yl]methyl]-5-methyl-6-oxopyridine-3-carboxamide], the figures for the 50% inhibitory concentration (IC50) at MEK1, in the data set on Calu-6 (setting [2]) and in the data set with NCI-H2122 (setting [3]) were 2 nM, 22 nM and 6 nM, respectively. In data set [1], this compound had a microsomal CLint at 0.99 µM of 15 µL/min/mg.
In the case of `CS(=O)(=O)Nc1cccc(Cc2cc(C(=O)NC3CC3)c(Nc3ccc(I)cc3F)c(F)c2F)c1F` [Compound E-25, N-Cyclopropyl-3,4-difluoro-2-(2-fluoro-4-iodoanilino)-5-[[2-fluoro-3-(methanesulfonamide)phenyl]methyl]benzamide], the half-maximal inhibitory concentration (IC50) on MEK1 was found to be 284 nM; on BRAF (Table 3; read-out: BRAF IC50) it was 11 nM; in the data set on Calu-6 (setting [4]) it was 28 nM; in the data set with NCI-H2122 (setting [4]) it was 7 nM.
As to `COCCS(=O)(=O)Nc1cccc(Cc2cc(C(N)=O)c(Nc3ccc(I)cc3F)c(F)c2F)c1` [Compound F-3, 3,4-Difluoro-2-(2-fluoro-4-iodoanilino)-5-[[3-(2-methoxyethylsulfonylamino)phenyl]methyl]benzamide], the IC50 on MEK1 turned out to be 380 nM; at BRAF (read-out: BRAF IC50; Table 3) it was 5 nM; in the data set with A549, 8 nM; with NCI-H2122 (setting [3]) it was 24 nM. The compound further displayed an intrinsic clearance (microsomal CLint) at 0.99 µM in data set [1] of 28 µL/min/mg.
